Legend:
Format in all cases: cell-based
[1] = molecular target: proteins of HEK293T cells transiently overexpressing caspase-6 (Homo sapiens, UniProt P53396); details: exp_ref Probe; protein ACLY (P53396); analysis C6
[2] = molecular target: proteins of HEK293T cells transiently overexpressing caspase-6 (Homo sapiens, UniProt P46777); details: exp_ref Probe; protein RPL5 (P46777); analysis C6
[3] = molecular target: proteins of HEK293T cells transiently overexpressing caspase-6 (Homo sapiens, UniProt P35527); details: Probe; protein KRT9 P35527
[4] = molecular target: proteins of HEK293T cells transiently overexpressing caspase-6 (Homo sapiens, UniProt P46060); details: exp_ref Probe; protein RANGAP1 (P46060); analysis C6
[5] = molecular target: proteins of HEK293T cells transiently overexpressing caspase-6 (Homo sapiens, UniProt P34897); details: Probe; protein SHMT2 P34897
[6] = molecular target: T1, proteins of HEK293T cells transiently overexpressing caspase-6 (Homo sapiens, UniProt P26583)
T1 sequence (P26583 1-209): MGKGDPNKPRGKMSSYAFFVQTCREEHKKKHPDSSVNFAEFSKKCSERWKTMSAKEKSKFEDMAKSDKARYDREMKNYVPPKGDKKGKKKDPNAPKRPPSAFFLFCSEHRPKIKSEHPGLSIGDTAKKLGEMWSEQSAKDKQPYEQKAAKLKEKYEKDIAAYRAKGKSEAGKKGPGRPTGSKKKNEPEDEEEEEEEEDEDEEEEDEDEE

[7] = molecular target: proteins of HEK293T cells transiently overexpressing caspase-6 (Homo sapiens, UniProt P07900); details: exp_ref Probe; protein HSP90AA1 (P07900); analysis C6
[8] = molecular target: proteins of HEK293T cells transiently overexpressing caspase-6 (Homo sapiens, UniProt Q96AG4); details: protein LRRC59 (Q96AG4); exp_ref Probe; analysis C6
[9] = molecular target: proteins of HEK293T cells transiently overexpressing caspase-6 (Homo sapiens, UniProt P38646); details: protein HSPA9 (P38646)
[10] = molecular target: proteins of HEK293T cells transiently overexpressing caspase-6 (Homo sapiens, UniProt Q92688); details: protein ANP32B (Q92688)
[11] = molecular target: proteins of HEK293T cells transiently overexpressing caspase-6 (Homo sapiens, UniProt P16615); details: protein ATP2A2 (P16615)
[12] = molecular target: proteins of HEK293T cells transiently overexpressing caspase-6 (Homo sapiens, UniProt P25705); details: exp_ref Probe; protein ATP5A1 (P25705); analysis C6
[13] = molecular target: proteins of HEK293T cells transiently overexpressing caspase-6 (Homo sapiens, UniProt P41250); details: exp_ref Probe; protein GARS (P41250); analysis C6
[14] = tested on: proteins of HEK293T cells transiently overexpressing caspase-6; details: exp_ref Probe; protein CBSL (P0DN79); analysis C6
[15] = molecular target: proteins of HEK293T cells transiently overexpressing caspase-6 (Homo sapiens, UniProt Q14974); details: protein KPNB1 (Q14974)
[16] = molecular target: proteins of HEK293T cells transiently overexpressing caspase-6 (Homo sapiens, UniProt P61619); details: exp_ref Probe; protein SEC61A1 (P61619); analysis C6
[17] = molecular target: proteins of HEK293T cells transiently overexpressing caspase-6 (Homo sapiens, UniProt Q9Y5M8); details: exp_ref Probe; protein SRPRB (Q9Y5M8); analysis C6
[18] = molecular target: T2, proteins of HEK293T cells transiently overexpressing caspase-6 (Homo sapiens, UniProt Q02978); details: protein SLC25A11 (Q02978), analysis C6
T2 sequence (Q02978 1-314): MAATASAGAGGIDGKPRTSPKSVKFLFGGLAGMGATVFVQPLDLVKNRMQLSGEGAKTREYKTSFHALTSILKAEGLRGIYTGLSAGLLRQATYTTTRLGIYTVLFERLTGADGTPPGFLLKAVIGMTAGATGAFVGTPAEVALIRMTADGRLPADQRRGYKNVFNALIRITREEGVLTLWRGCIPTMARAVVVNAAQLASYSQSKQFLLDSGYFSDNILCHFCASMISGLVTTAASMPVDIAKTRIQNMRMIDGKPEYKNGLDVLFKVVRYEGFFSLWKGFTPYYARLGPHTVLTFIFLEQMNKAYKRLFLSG

[19] = molecular target: proteins of HEK293T cells transiently overexpressing caspase-6 (Homo sapiens, UniProt P08195); details: protein SLC3A2 (P08195); exp_ref Probe; analysis C6
[20] = molecular target: proteins of HEK293T cells transiently overexpressing caspase-6 (Homo sapiens, UniProt P07437); details: protein TUBB (P07437)
[21] = molecular target: proteins of HEK293T cells transiently overexpressing caspase-6 (Homo sapiens, UniProt P62280); details: protein RPS11 (P62280), analysis C6

proteins of HEK293T cells transiently overexpressing caspase-6 (Homo sapiens, UniProt P07437), sequence (P07437 whole entry): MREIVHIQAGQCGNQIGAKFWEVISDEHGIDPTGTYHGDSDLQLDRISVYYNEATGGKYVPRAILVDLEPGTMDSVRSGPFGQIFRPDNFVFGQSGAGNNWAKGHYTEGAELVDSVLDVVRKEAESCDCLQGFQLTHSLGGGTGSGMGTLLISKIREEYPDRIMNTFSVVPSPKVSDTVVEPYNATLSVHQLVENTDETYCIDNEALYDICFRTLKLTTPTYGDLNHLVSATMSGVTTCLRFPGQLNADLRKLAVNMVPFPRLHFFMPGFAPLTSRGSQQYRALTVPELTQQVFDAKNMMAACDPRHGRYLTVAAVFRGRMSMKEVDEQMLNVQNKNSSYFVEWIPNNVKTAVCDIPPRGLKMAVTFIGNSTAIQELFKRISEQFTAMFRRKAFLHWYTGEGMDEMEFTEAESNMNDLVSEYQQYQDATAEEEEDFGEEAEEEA
proteins of HEK293T cells transiently overexpressing caspase-6 (Homo sapiens, UniProt Q92688), sequence (Q92688 whole entry): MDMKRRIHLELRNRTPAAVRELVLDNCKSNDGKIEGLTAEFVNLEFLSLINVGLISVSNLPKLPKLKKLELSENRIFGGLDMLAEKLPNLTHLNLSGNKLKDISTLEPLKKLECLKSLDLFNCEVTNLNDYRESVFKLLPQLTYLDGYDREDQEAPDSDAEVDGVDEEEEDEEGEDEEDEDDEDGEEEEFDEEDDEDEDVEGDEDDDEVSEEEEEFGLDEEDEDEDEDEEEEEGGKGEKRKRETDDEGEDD
proteins of HEK293T cells transiently overexpressing caspase-6 (Homo sapiens, UniProt P38646), sequence (P38646 47-679): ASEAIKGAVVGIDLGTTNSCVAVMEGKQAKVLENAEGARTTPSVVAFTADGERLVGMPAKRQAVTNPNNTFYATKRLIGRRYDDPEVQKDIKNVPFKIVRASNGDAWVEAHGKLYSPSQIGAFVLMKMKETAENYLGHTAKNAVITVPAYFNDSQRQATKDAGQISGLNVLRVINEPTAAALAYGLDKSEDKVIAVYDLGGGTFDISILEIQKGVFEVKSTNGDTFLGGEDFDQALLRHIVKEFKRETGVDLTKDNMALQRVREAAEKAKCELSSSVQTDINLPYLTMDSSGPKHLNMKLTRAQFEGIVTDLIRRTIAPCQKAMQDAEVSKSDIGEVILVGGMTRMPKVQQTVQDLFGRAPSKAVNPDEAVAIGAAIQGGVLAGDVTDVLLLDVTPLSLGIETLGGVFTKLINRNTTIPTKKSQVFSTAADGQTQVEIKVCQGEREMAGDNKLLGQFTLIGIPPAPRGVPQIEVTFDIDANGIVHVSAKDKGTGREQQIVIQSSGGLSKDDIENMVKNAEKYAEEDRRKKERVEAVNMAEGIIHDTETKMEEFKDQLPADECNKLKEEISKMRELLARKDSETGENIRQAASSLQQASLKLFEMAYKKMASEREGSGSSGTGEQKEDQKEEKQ
proteins of HEK293T cells transiently overexpressing caspase-6 (Homo sapiens, UniProt P16615), sequence (P16615 whole entry): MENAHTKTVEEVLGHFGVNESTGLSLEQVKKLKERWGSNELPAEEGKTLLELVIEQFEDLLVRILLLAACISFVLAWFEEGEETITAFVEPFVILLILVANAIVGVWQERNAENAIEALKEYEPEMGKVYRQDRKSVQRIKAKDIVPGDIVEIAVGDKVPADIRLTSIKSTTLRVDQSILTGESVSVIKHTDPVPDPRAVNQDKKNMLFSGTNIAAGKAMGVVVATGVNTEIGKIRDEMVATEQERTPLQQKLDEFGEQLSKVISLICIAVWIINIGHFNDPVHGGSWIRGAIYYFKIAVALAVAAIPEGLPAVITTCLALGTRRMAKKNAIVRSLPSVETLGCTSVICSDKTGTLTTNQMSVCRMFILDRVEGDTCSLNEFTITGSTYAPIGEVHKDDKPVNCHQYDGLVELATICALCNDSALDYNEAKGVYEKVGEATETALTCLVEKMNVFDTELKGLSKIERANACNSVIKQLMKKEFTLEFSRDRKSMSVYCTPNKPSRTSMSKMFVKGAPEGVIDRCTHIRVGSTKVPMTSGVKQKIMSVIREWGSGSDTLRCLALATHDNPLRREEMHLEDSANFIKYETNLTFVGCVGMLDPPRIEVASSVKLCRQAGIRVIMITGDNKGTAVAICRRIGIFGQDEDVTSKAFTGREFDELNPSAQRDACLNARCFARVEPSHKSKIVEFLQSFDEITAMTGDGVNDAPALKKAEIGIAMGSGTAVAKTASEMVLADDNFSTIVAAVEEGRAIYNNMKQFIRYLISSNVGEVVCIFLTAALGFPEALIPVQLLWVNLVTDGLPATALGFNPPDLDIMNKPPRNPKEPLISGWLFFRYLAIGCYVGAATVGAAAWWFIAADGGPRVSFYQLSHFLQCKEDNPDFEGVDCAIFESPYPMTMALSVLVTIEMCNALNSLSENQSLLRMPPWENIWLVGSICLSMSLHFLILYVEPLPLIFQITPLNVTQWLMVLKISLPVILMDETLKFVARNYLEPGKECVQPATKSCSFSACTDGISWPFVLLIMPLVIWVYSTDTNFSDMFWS
proteins of HEK293T cells transiently overexpressing caspase-6 (Homo sapiens, UniProt Q14974), sequence (Q14974 whole entry): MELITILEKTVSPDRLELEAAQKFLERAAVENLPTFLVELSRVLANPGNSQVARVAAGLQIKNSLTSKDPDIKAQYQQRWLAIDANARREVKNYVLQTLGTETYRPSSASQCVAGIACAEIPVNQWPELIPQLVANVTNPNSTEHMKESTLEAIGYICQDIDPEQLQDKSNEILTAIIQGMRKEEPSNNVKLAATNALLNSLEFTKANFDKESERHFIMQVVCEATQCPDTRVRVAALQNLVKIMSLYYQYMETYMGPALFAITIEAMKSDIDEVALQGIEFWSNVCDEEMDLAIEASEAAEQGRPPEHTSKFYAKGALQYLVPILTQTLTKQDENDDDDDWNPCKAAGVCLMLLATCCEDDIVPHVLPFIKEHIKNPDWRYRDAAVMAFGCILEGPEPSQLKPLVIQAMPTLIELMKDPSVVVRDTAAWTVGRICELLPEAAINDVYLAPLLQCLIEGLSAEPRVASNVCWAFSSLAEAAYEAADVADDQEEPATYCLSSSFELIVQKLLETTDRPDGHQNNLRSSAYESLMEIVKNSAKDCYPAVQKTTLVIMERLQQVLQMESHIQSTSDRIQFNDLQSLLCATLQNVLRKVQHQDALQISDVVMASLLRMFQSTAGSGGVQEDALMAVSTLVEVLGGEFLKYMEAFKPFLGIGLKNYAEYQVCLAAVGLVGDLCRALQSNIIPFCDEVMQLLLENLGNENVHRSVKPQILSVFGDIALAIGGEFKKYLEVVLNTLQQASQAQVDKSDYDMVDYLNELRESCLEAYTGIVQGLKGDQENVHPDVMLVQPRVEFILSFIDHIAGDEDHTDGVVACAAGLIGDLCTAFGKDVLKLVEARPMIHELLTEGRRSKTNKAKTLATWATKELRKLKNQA
proteins of HEK293T cells transiently overexpressing caspase-6 (Homo sapiens, UniProt P35527), sequence (P35527 whole entry): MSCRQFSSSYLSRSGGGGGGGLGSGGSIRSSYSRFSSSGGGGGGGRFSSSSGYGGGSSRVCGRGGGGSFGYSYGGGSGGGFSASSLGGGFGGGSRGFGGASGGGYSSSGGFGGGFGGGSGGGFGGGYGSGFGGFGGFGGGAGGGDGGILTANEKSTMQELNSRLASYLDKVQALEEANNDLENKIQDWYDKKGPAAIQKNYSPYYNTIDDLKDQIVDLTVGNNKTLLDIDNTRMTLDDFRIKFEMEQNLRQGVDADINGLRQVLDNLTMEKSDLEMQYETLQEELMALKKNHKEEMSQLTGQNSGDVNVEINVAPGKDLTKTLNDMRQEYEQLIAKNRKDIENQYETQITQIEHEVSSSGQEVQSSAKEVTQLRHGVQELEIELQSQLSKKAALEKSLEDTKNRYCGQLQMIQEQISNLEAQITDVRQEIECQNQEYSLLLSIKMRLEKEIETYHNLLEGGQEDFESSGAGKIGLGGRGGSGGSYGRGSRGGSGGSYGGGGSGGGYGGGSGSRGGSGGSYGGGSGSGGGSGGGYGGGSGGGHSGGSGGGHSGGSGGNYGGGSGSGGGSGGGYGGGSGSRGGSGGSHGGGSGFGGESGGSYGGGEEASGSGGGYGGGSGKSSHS
proteins of HEK293T cells transiently overexpressing caspase-6 (Homo sapiens, UniProt P46060), sequence (P46060 whole entry): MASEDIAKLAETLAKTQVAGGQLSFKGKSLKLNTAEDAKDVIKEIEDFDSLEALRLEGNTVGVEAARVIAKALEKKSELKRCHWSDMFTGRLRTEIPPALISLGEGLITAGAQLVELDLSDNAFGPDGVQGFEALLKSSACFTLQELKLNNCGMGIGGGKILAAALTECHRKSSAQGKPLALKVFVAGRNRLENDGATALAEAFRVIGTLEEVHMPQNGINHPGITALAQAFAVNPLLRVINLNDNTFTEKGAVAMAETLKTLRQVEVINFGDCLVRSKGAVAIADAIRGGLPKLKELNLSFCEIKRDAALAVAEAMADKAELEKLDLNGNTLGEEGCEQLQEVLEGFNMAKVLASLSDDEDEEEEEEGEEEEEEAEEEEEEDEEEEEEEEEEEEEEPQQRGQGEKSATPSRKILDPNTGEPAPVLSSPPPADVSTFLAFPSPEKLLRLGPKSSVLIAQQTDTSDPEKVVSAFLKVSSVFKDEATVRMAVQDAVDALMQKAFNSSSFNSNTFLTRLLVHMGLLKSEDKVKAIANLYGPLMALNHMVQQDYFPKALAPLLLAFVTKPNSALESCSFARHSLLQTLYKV
proteins of HEK293T cells transiently overexpressing caspase-6 (Homo sapiens, UniProt P08195), sequence (P08195 102-630): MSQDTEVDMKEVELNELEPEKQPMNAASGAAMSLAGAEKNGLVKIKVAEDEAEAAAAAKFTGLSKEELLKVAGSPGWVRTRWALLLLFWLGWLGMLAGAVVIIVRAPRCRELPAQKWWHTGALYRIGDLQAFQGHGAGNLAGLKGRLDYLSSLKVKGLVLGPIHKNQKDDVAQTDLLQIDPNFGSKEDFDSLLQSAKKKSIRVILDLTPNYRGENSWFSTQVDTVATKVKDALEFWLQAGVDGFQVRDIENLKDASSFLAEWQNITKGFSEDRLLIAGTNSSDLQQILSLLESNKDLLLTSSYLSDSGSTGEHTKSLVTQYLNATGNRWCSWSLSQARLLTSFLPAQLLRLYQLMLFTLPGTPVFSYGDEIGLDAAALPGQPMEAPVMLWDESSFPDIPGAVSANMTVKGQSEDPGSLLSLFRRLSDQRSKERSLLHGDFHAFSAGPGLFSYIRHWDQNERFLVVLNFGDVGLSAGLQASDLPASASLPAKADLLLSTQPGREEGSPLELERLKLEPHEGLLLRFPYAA

C#CCOc1ccc([C@@H]2C[C@@H](C(=O)Nc3ccc(OC(F)(F)F)cc3)CN(S(=O)(=O)C=C)C2)cc1 (relative stereo) [13-t] was tested, and the enrich.exp.med [1] was -0.1134, the enrich.exp.med [2] was 0.3142 and the enrich.exp.med [3] was -6.8322. For the same molecule, the enrich.exp.med [4] was 0.1212, the enrich.exp.med [5] was -2.762 and the enrich.exp.med ([6]; Probe, protein HMGB2 P26583) was -1.024. For the same molecule, the enrich.exp.med.lin ([6]; protein HMGB2 (P26583)) was 0.4916, the enrich.exp.med.log2 ([6]; protein HMGB2 (P26583)) was -1.024 and the enrich.exp.med [7] was 0.7182. It also gave an enrich.exp.med [8] of 2.108, an enrich.exp.med ([9]; exp_ref Probe, analysis C6) of 0.7965 and an enrich.exp.med.lin [9] of 1.737. For the same molecule, the enrich.exp.med.log2 [9] was 0.7965, the enrich.exp.med.lin [10] was 4.217 and the enrich.exp.med.log2 [10] was 2.0761. For the same molecule, the enrich.exp.med ([10]; exp_ref Probe, analysis C6) was 2.0761, the enrich.exp.med.lin [11] was 2.861 and the enrich.exp.med.log2 [11] was 1.516. For the same molecule, the enrich.exp.med ([11]; exp_ref Probe, analysis C6) was 1.516, the enrich.exp.med [12] was -0.052 and the enrich.exp.med [13] was 1.008. For the same molecule, the enrich.exp.med [14] was -0.1387, the enrich.exp.med ([15]; exp_ref Probe, analysis C6) was 0.7787 and the enrich.exp.med.lin [15] was 1.716. The enrich.exp.med.log2 [15] was 0.7787, the enrich.exp.med [16] was 0.5807 and the enrich.exp.med [17] was 0.6428. For the same molecule, the enrich.exp.med.lin ([18]; Expt Probe) was 7.305, the enrich.exp.med.log2 ([18]; Expt Probe) was 2.869 and the enrich.exp.med ([18]; exp_ref Probe) was 2.869. The enrich.exp.med [19] was 1.379, the enrich.exp.med ([20]; exp_ref Probe, analysis C6) was 1.184 and the enrich.exp.med.lin [20] was 2.273. For the same molecule, the enrich.exp.med.log2 [20] was 1.184, the enrich.exp.med.lin ([21]; Expt Probe) was 5.0581 and the enrich.exp.med.log2 ([21]; Expt Probe) was 2.3386. The enrich.exp.med ([21]; exp_ref Probe) was 2.3386.
